Reference: PubChem BioAssay (NCI)
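Values below derive from 48-hour exposures of cells grown in 96-well plates, with endpoints linearly interpolated between the two concentrations bracketing the appropriate inhibition level. The concentration for full growth arrest is given as TGI.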

Experiments:
Test in all cases: NCI-60 cell line screen, 48 h
SF-539 CNS = system: SF-539 CNS
MCF7 breast = system: MCF7 breast
HOP-62 NSCLC = system: HOP-62 NSCLC
HCT-15 colon = system: HCT-15 colon
TK-10 renal = system: TK-10 renal
NCI-H23 lung = system: NCI-H23 lung
NCI-H460 lung = system: NCI-H460 lung
SK-MEL-2 melanoma = system: SK-MEL-2 melanoma
MALME-3M melanoma = system: MALME-3M melanoma
DU-145 prostate = system: DU-145 prostate
SR leukemia = system: SR leukemia

Row | Compound | TGI (SF-539 CNS) [µM] | TGI (MCF7 breast) [µM] | TGI (HOP-62 NSCLC) [µM] | TGI (HCT-15 colon) [µM] | TGI (TK-10 renal) [µM] | TGI (NCI-H23 lung) [µM] | TGI (NCI-H460 lung) [µM] | TGI (SK-MEL-2 melanoma) [µM] | TGI (MALME-3M melanoma) [µM] | TGI (DU-145 prostate) [µM] | TGI (SR leukemia) [µM]
1 | Cc1ccc(S(=O)(=O)NC2C(=O)c3ccccc3C(=O)C2n2cnc3ccccc32)cc1 (centres undefined) | 62.6 | > 100 | > 100 | > 100 | 49.6 | 58.6 | 84.3 | 51.7 | 1.81 | > 100 | > 100
2 | N#Cc1c(Cl)c2ccccc2n2c1nc1ccccc12 | 42.8 | > 100 | > 100 | 33.1 | 36.5 | 53.8 | > 100 | > 100 |  | 80.4 | 77.7
3 | CCSC1=N/C(=C\c2ccco2)C(Cl)=N1 | > 100 | > 100 | > 100 | > 100 | > 100 | > 100 | > 100 | > 100 |  | > 100 | > 100
4 | C=C1CC(C)(COc2ccc3ccc(=O)oc3c2)OC1=O (centres undefined) | 10.2 | 5.65 | 39.5 | 8.71 | 4.29 | 12.3 | 22.9 | 8.8 | 6.31 | 12.5 | > 20.7
5 | CN(C)C(=O)Nc1cc2c3c(c1)CCCN3CCC2 | > 10 | > 10 | > 10 | > 10 | > 10 | > 10 | > 10 | > 10 | > 10 | > 10 | > 10
6 | NNc1nc2ccccc2s1 | > 100 | > 100 |  | > 100 | > 100 | > 100 | > 100 | > 100 | > 100 | > 100 | > 100
7 | COc1cc(NCc2ccc3nc(OC)c(OC)nc3c2)cc(OC)c1OC | > 100 | > 100 | > 100 | > 100 |  | > 100 | > 100 | > 100 | > 100 | > 100 | > 100
8 | O=c1[nH]nc(Cc2ccccc2)n1/N=C/c1ccccc1Cl | > 100 | > 100 |  | > 100 | > 100 | > 100 | > 100 | > 100 | > 100 | > 100 | > 100
9 | COc1cc(Nc2cnc3cc(F)c(F)cc3n2)cc(OC)c1 | > 100 | > 100 | > 100 | > 100 | > 100 | 91 | > 100 | > 100 | > 100 | > 100 | > 100
10 | COc1cccc2c(Nc3ccc(S(=O)(=O)NC(C)=O)cc3)c3ccc([N+](=O)[O-])cc3nc12 | > 100 | > 100 | > 100 | > 100 | > 56.7 | > 100 | > 100 | > 100 | > 87 | > 100 | 34.3
11 | COC(=O)c1ccccc1/C=C1\Cc2cc(C)cc(C)c2C1=O | > 100 | > 100 | > 100 | > 100 | > 100 | > 100 | > 100 | > 100 | > 100 | > 100 | > 100
12 | CC(=O)OC1COC(n2c(-c3ccc(Cl)cc3)cc(-c3ccccc3)c(C#N)c2=S)C(OC(C)=O)C1OC(C)=O (centres undefined) | 15.2 | > 100 | 28.4 | > 100 | > 73.4 | 28.3 | > 66.8 | 29.4 | > 100 | 41.6 | > 82.8
13 | NC(=O)C(c1ccccc1)N1OC2C(=O)N(c3cccc4ccccc34)C(=O)C2C1c1c2ccccc2c(Cl)c2ccccc12 (centres undefined) | 12.9 | 11.2 | 27.8 | 16.4 | 22.8 | 26 | 18.6 | 19.6 | 35.7 | 46.6 | 3.8
14 | C=C(Br)CN(C(C)=O)C1CCCCC1 | > 100 | > 100 | > 100 | > 100 | > 100 | > 100 | > 100 | > 100 | > 100 | > 100 | > 100
15 | C(=NCc1ccccc1)c1ccccc1-c1ccccc1C=NCc1ccccc1 | > 10 | > 10 | > 10 | > 10 | > 10 | > 10 | > 10 | > 10 | > 10 | > 10 | > 10
16 | COc1ccc(C(c2c[nH]c3ccc(Br)cc23)c2c[nH]c3ccc(Br)cc23)cc1 | 2.06 | 0.765 | 1.22 | 0.624 | 2.27 | 1.47 | 0.361 | 1.22 | 2.23 | 1.38 | 0.418
17 | CC1(C)CCCCCCC2OC2CCCCCC(C)(C)C1=O (centres undefined) | > 100 | > 73.3 | > 100 | > 100 | > 100 | > 100 | > 100 | > 65.4 | > 100 | > 100 | > 70
18 | COc1ccc(C2=C(N)c3c(OC)cccc3C2=O)cc1 | 41.3 | > 100 | > 100 | > 100 |  | > 100 | > 100 | > 100 | > 100 | > 100 | > 100

Row | Compound | TGI (SF-539 CNS) [µM] | TGI (MCF7 breast) [µM] | TGI (HOP-62 NSCLC) [µM] | TGI (HCT-15 colon) [µM] | TGI (TK-10 renal) [µM] | TGI (NCI-H23 lung) [µM] | TGI (NCI-H460 lung) [µM] | TGI (SK-MEL-2 melanoma) [µM] | TGI (MALME-3M melanoma) [µM] | TGI (DU-145 prostate) [µM] | TGI (SR leukemia) [µM]
19 | NC1=NN(c2ccccc2)C2(O)c3ccncc3C3=NN(c4ccccc4)C(=O)C132 (centres undefined) | > 100 | > 100 |  | > 100 |  | > 100 | > 100 | > 100 | > 100 | > 100 | > 100
20 | O=C(C[n+]1ccccc1)N=N/C(C(=O)Nc1c(Cl)c(O)c2ccccc2c1O)=C1/C(=O)Oc2cc(O)ccc2C1=O | 16 | 15.5 | 22.4 | 7.09 | > 100 | 17.3 | 8.36 | 8.1 |  | 12.4 | 53.6
21 | OC(C/C(=N\N1CCCCC1)c1cccs1)(C(F)(F)F)C(F)(F)F | > 10 | > 10 | > 10 | > 10 | > 10 | > 10 | > 10 | > 10 | > 10 | > 10 | > 10
22 | Cc1ccc(SCC(CF)OCn2cc(F)c(=O)[nH]c2=O)cc1 (centres undefined) | > 100 | > 100 | > 100 | > 100 | > 100 | > 100 | > 100 | > 100 | > 100 | > 100 | > 100
23 | C[C@H]1C[C@H](C)c2ccccc2N(C)C1=Nc1ccccc1 | > 100 | > 100 | > 100 | > 100 | 55.6 | 50 | 64.4 | 44.2 | 71.4 | > 100 | 58.3
24 | CC(=O)NC1C(O)C(O)C(CO)OC1n1ncc(=O)[nH]c1=O (centres undefined) | > 100 | > 100 | > 100 | > 100 | > 100 | > 100 | > 100 | > 100 | > 100 | > 100 | > 100
25 | O=c1[nH]c(=S)[nH]n1C(=S)n1[nH]c(=S)[nH]c1=O | > 100 | 40.6 | > 100 | > 100 | > 100 | > 100 | > 100 | > 100 | > 100 | > 100 | > 100
26 | O=C1c2c(ccc3c2CCC3)CC12Cc1cc3c(cc1C2)CCC3 | > 100 | > 100 | > 100 | > 100 | > 100 | > 100 | > 100 | > 100 | > 100 | > 100 | > 100
27 | O=c1oc2ccccc2nc1/C=C(\O)c1ccc([N+](=O)[O-])cc1 | > 100 | > 100 | > 100 | > 100 | > 100 | > 100 | > 100 | > 100 | > 100 | > 100 | > 100
28 | CN(C)CCCCN1c2ccccc2Sc2cc(N=[N+]=[N-])ccc21 | 3.4 | 3.32 | 5.22 | 4.53 | 4.86 | 22.4 | 3.83 | 3.4 | 3.34 | 3.8 | > 100
29 | CCOC(=O)C1C(c2ccc(OC)cc2)c2c([nH][nH]c2=O)CC1(O)OCC (centres undefined) | > 100 | > 100 | > 100 | > 100 | > 100 | > 100 | > 100 | > 100 | > 100 | > 100 | > 100
30 | CC(=O)OCC1OC(N2C(C)=C(C(C)=O)C(c3ccco3)C(C#N)=C2S)C(OC(C)=O)C(OC(C)=O)C1OC(C)=O (centres undefined) | > 100 | > 100 | > 100 | > 100 | > 100 | > 100 | > 100 | > 100 | > 100 | > 100 | > 100
31 | CNn1c(C)n[nH]c1=O | > 100 | > 100 | > 100 | > 100 | > 100 | > 100 | > 100 | > 100 | > 100 | > 100 | > 100
32 | CCCCCC(CO)C(O)(C(F)(F)F)C(F)(F)F (centres undefined) | > 10 | > 10 | > 10 | > 10 | > 10 | > 10 | > 10 | > 10 | > 10 | > 10 | > 10
33 | CCCCC(=O)NC1(c2cc3ccccc3s2)CCCCC1 | > 100 | > 100 | > 100 | > 100 | > 100 | > 100 | > 100 | > 100 | > 100 | > 100 | > 100
34 | Cc1nn(-c2ccccc2)c2[nH]c(=S)cnc12 | > 100 | > 100 | > 100 |  | > 100 | > 100 | > 100 | > 100 | > 100 | > 100 | > 100
35 | O=[N+]([O-])c1ccc2[nH]ncc2c1Cl | > 100 | > 100 | > 100 | > 100 | > 100 |  | > 100 | 40.4 |  | 32.2 | > 100
36 | COc1ccc(-c2c(CN3CCOCC3)sc3nc4ccccc4n23)cc1 | 41.7 | > 100 | > 100 | > 95 | > 100 | > 100 | 53.5 | > 100 | > 100 | > 100 | 15.1
